Test results: patent US8273777B2, “Glucokinase activators and methods of using same” (Bristol-Meyer Squibb Company, priority 2007, dated 2012)

The compounds below were run against T1, human glucokinase (GK) (Homo sapiens, UniProt P35557) (assay: Glucokinase tandem enzymatic assay). Details: 12 mM glucose; EC50 = concentration to achieve 50% of full activation.
T1 construct: Full-length human hepatic GK (untagged) was expressed in BL21 STAR (DE3)pLysS cells; made in house; host or cells: E. coli BL21 STAR (DE3)pLysS (Invitrogen)
T1 sequence (P35557 1-466 isoform P35557-2): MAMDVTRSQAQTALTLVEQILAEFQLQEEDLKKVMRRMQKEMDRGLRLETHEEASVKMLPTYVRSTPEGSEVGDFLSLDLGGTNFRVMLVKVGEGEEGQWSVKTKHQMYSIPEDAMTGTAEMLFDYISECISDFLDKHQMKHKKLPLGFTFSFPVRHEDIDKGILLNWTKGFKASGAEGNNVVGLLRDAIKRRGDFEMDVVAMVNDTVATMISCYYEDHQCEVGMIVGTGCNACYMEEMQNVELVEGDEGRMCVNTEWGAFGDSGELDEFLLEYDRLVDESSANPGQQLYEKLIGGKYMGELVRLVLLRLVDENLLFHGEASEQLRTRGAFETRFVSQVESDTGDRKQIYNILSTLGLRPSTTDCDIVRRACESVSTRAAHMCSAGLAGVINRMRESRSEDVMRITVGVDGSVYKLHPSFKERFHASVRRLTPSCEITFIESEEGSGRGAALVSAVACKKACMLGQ
Type: biochemical
Protocol: Glucokinase Tandem Enzymatic Assay
Enzymatic activity of human glucokinase (GK) was measured by incubating GK, ATP, and glucose for discrete time periods followed by quenching with EDTA (ethylenediamine tetra-acetic acid). Relative amounts of product glucose-6-phosphate (G6P) were measured by then running a detection assay using G6P dehydrogenase and measuring the conversion of ThioNAD (thio-nicotinamide adenine dinucleotide) to ThioNADH (thio-dihydronicotinamide adenine dinucleotide) at a wavelength of 405 nm. This ‘uncoupled’ enzymatic reaction is denoted as the GK ‘tandem’ assay. Activation of GK by compounds can be assessed using this assay. The GK tandem assay protocol described below was followed using a range of activator compound concentrations from 0 to 100 μM at 5 and 12 mM of glucose. Human full-length glucokinase (GK, 15 nM) was incubated with 5 or 12 mM glucose in a 384 well black microtiter plate with a clear bottom. To initiate the GK reaction, magnesium-ATP (3 mM final concentration) was added to GK in buffer (final buffer conditions of 25 mM HEPES buffer, pH 7.1, containing 1 mM dithiothreitol and 5% DMSO). The total reaction volume was 20 μL The reaction was allowed to proceed for ten minutes and was then quenched with 5 μL EDTA; 45 mM final). The components of the detection reaction, ThioNAD and G6PDH (glucose-6-phosphate dehydrogenase) (final concentrations of 650 μM and 3.33 Units, respectively), were then added together in a volume of 25 μL (to give a total volume of 50 μL). Absorbance measurements were made at 405 nm on a Spectramax Plus 384 absorbance plate reader (Molecular Devices). Absorbance was read, background glucose-6-phosphate levels were subtracted, after which activation was calculated as a percentage of control activity. Control activity was determined using GK in the presence of vehicle (DMSO), with background glucose-6-phosphate subtracted. Background glucose-6-phosphate was determined by pre-quenching GK with EDTA prior to reaction initiation with ATP.
Expression and Purification of Human GK
Full-length human hepatic GK (untagged) was expressed in BL21 STAR (DE3)pLysS cells (Invitrogen) at 25° C. as described by Mookhtiar et al. (1). The protein was purified essentially as described by Lange (2) with a slight modification. Briefly, cell pellets were lysed via three rounds of freezing and thawing, centrifuged at 15000 g for clarification, and precipitated with 40-65% (NH4)2SO4. The resulting pellet was resuspended in buffer, dialyzed, and applied directly to a Q-Sepharose (Sigma) column followed by elution with a linear 100-600 mM KCl gradient. GK containing fractions were pooled, dialyzed overnight vs. 25 mM Hepes pH 7.2/1 mM MgCl2/1 mM EDTA/0.1 M KCl/1 mM DTT, then dialyzed again with same buffer with 10% glycerol added.
In the case of `COC[C@H](C)Oc1cc(NC(=O)c2cc[nH]n2)cc(Oc2ccc(S(C)(=O)=O)cc2)c1` [Example 8], the EC50 was 513 nM. Compound `COC[C@H](C)Oc1cc(NC(=O)c2c[nH]cn2)cc(Oc2ccc(S(C)(=O)=O)cc2)c1` [Example 6] has an EC50 of 191 nM. With `Cc1cnc(C(=O)Nc2cc(Oc3ccc(S(C)(=O)=O)cc3)cc(O[C@@H](C)CO)c2)s1` [Example 22] the EC50 was 77 nM. `COC[C@H](C)Oc1cc(NC(=O)c2nc3ccccc3s2)cc(Oc2ccc(S(C)(=O)=O)cc2)c1` [Example 5] gave an EC50 of 165 nM. Compound `COC[C@H](C)Oc1cc(NC(=O)c2ncc(C)s2)cc(Oc2ccc(S(C)(=O)=O)cc2)c1` [Example 18] has an EC50 of 67 nM. Work on `CS(=O)(=O)c1ccc(Oc2cc(NC(=O)c3c[nH]cn3)cc(Oc3ccc(S(C)(=O)=O)cc3)c2)cc1` [Example 31] yielded an EC50 of 575 nM.

Same assay, conditions: 12 mM glucose; expressed as % of basal activation; EC50 could not be calculated; read-out: Maximal activation (%) Human Glucokinase @ 12 mM Glucose
With `COC[C@H](C)Oc1cc(NC(=O)c2ncn[nH]2)cc(Oc2ccc(S(C)(=O)=O)cc2)c1` [Example 7] the Emax was 131%. Compound `CS(=O)(=O)c1ccc(Oc2cc(NC(=O)c3nccs3)cc(C(F)(F)F)c2)cc1` [Example 37] has an Emax of 163%.

These compounds were tested on male DIO (diet-induced obese) C57BL/6J mice (assay: Oral glucose tolerance test (OGTT) in DIO mice). Details: 30 mg/kg dose, given orally 60 min before glucose 2 g/kg, ΔAUC 0-120 min.
Type: in vivo
Protocol: In Vivo Studies: Oral Glucose Tolerance Test (OGTT)
Oral glucose tolerance tests were carried out on male DIO (diet-induced obese) C57BL/6J mice fed a high fat diet (60% kcal from fat) for 26 weeks prior to experimentation. Mice were fasted overnight before use for experiments. A test compound or vehicle (10% dimethyl acetamide +10% ethanol +10% Cremophore +70% water) was given orally 60 min before oral administration of a glucose solution at a dose of 2 g/kg body weight (oral glucose tolerance test; OGTT). Blood glucose levels were measured from tail-bled samples taken at different time points before and after administration of glucose (time course of 2 hours). A time curve of the blood glucose was generated and the change from baseline area-under-the curve (ΔAUC) from 0-120 min was calculated (the time glucose administration being time zero).
In the case of `COC[C@H](C)Oc1cc(NC(=O)c2c[nH]cn2)cc(Oc2ccc(S(C)(=O)=O)cc2)c1` [Example 6], the “reduction of glucose AUC levels in OGTT” value was 66%.
